Assay results from the supplement of paper PMC10307832.

Assays:
Experiment in all cases: relative viability (nuclei count vs DMSO), 5 days (fraction); higher = more cells survive
[1] = compound: CC1=CC(=CC=C1)NC2=NC(=CS2)C3=CC=NC=C3 + CCNC(=O)c1noc(-c2cc(C(C)C)c(O)cc2O)c1-c1ccc(CN2CCOCC2)cc1 [Luminespib] (partner 0.01 µM)
Procedure, shortened: (§1)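 Lung cancer cell lines, seeded in 1536-well plates, were treated the following day by pin tool with a single drug or with five library-drug doses (not always all listed) in √10 steps on top of a fixed anchor-drug dose. Cells were fixed and nuclei stained in one step after 5 days, and nuclei were counted. Relative viability is the nuclei count for treated wells divided by that for vehicle wells, reported as medians of duplicate plates.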

[2] = compound: Cc1ccc(NC(=O)c2ccc(CN3CCN(C)CC3)cc2)cc1Nc1nc(-c2cccnc2)cs1 [Masitinib] + COc1cccc2cc(-c3nc([C@H]4CC[C@H](C(=O)O)CC4)n4ncnc(N)c34)[nH]c12 [OSI-027] (partner 0.5 µM)
Procedure, shortened: as §1

[3] = compound: CC1=CC(=CC=C1)NC2=NC(=CS2)C3=CC=NC=C3 + CS(=O)(=O)N1CCN(Cc2cc3nc(-c4cccc5[nH]ncc45)nc(N4CCOCC4)c3s2)CC1 [Pictilisib] (partner 1 µM)
Procedure, shortened: as §1

[4] = compound: Cc1ccc(NC(=O)c2ccc(CN3CCN(C)CC3)cc2)cc1Nc1nc(-c2cccnc2)cs1 [Masitinib] + NC(=O)Nc1cc(-c2cccc(F)c2)sc1C(=O)N[C@H]1CCCNC1 [AZD7762] (partner 0.2 µM)
Procedure, shortened: as §1

| Cell Line | relative viability ([1]; first compound 0.08 µM) | relative viability ([1]; first compound 0.253 µM) | relative viability ([1]; first compound 0.8 µM) | relative viability ([1]; first compound 2.53 µM) | relative viability ([1]; first compound 8 µM) | relative viability ([2]; first compound 0.01 µM) | relative viability ([2]; first compound 0.03162 µM) | relative viability ([2]; first compound 0.1 µM) | relative viability ([2]; first compound 0.3162 µM) | relative viability ([2]; first compound 1 µM) | relative viability ([3]; first compound 0.08 µM) | relative viability ([3]; first compound 0.253 µM) | relative viability ([3]; first compound 0.8 µM) | relative viability ([3]; first compound 2.53 µM) | relative viability ([3]; first compound 8 µM) | relative viability ([4]; first compound 0.01 µM) | relative viability ([4]; first compound 0.03162 µM) | relative viability ([4]; first compound 0.1 µM) | relative viability ([4]; first compound 0.3162 µM) | relative viability ([4]; first compound 1 µM) |
| --- | --- | --- | --- | --- | --- | --- | --- | --- | --- | --- | --- | --- | --- | --- | --- | --- | --- | --- | --- | --- |
| NCI-H1395 | 0.597 | 0.72 | 0.688 | 0.643 | 0.524 | 0.647 | 0.609 | 0.71 | 0.563 | 0.623 | 0.569 | 0.602 | 0.531 | 0.627 | 0.697 | 0.379 | 0.416 | 0.392 | 0.405 | 0.378 |
| NCI-H1437 | 1.18 | 1.17 | 1.1 | 1.13 | 0.98 | 0.768 | 0.936 | 0.899 | 0.879 | 0.858 | 0.53 | 0.613 | 0.689 | 0.294 | 0.285 | 1.09 | 1.12 | 1.22 | 1.07 | 1.06 |
| NCI-H1651 | 1.16 | 0.893 | 0.875 | 0.706 | 0.74 | 0.735 | 0.656 | 0.695 | 0.824 | 0.706 | 0.476 | 0.651 | 0.749 | 0.465 | 0.588 | 0.49 | 0.523 | 0.485 | 0.475 | 0.471 |
| NCI-H1666 | 0.976 | 0.958 | 0.773 | 0.81 | 0.679 | – | 0.861 | 0.921 | 0.792 | 0.833 | 0.326 | 0.358 | 0.351 | 0.329 | 0.3 | 0.763 | 0.743 | 0.806 | 0.527 | 0.816 |
| NCI-H1734 | 0.203 | 0.22 | 0.22 | 0.192 | 0.191 | 0.668 | 0.625 | 0.599 | 0.568 | 0.544 | 0.479 | 0.499 | 0.494 | 0.588 | 0.43 | 0.595 | 0.515 | 0.599 | 0.599 | 0.545 |
| NCI-H1755 | 0.519 | 0.46 | 0.428 | 0.37 | 0.486 | – | 0.703 | 0.686 | 0.687 | 0.649 | 0.339 | 0.401 | 0.338 | 0.344 | 0.367 | 0.404 | 0.452 | 0.468 | 0.45 | 0.479 |
| NCI-H1792 | 0.305 | 0.407 | 0.375 | 0.326 | 0.351 | 0.762 | 0.402 | 0.71 | 0.563 | 0.9 | 0.155 | 0.198 | 0.219 | 0.162 | 0.24 | 0.733 | 0.502 | 0.611 | 0.39 | 0.547 |
| NCI-H1793 | 0.182 | 0.177 | 0.177 | 0.202 | 0.344 | 0.318 | 0.205 | 0.285 | 0.28 | 0.254 | – | 0.326 | 0.357 | 0.22 | 0.264 | 0.473 | 0.348 | 0.434 | 0.283 | 0.202 |
| NCI-H1915 | 0.897 | 0.857 | 0.833 | 0.787 | 0.776 | – | 0.606 | – | 0.578 | 0.546 | 0.834 | 0.853 | 0.888 | 0.759 | 0.92 | – | 0.734 | – | 0.747 | 0.718 |
| NCI-H1944 | 0.674 | 0.771 | 0.792 | 0.654 | 0.72 | – | 0.423 | – | 0.352 | 0.382 | 0.29 | 0.309 | 0.327 | 0.304 | 0.297 | – | 0.445 | – | 0.485 | 0.431 |
| NCI-H1975 | 0.252 | 0.17 | 0.201 | 0.249 | 0.184 | 0.937 | 0.793 | 0.864 | – | 0.509 | 0.229 | 0.216 | 0.188 | 0.199 | 0.191 | 0.707 | 0.665 | 0.884 | 0.434 | 0.546 |
| NCI-H1993 | 0.767 | 0.545 | 0.546 | 0.624 | 0.7 | 0.533 | 0.533 | 0.489 | 0.541 | 0.514 | 0.804 | 0.907 | 0.788 | 0.822 | 0.779 | 0.786 | 0.625 | 0.753 | 0.745 | 0.684 |
| NCI-H2085 | 0.381 | 0.428 | 0.444 | 0.383 | 0.393 | 0.627 | 0.666 | 0.918 | 0.47 | 0.604 | 0.5 | 0.434 | 0.453 | 0.426 | 0.447 | 0.872 | 0.915 | 0.819 | 0.893 | 0.886 |
| NCI-H2087 | 0.17 | 0.183 | 0.137 | 0.21 | 0.126 | 0.627 | 0.628 | 0.743 | 0.481 | 0.437 | 0.616 | 0.812 | 0.851 | 0.885 | 0.77 | 1.22 | 1.35 | 1.2 | 1.5 | 1.3 |
| NCI-H2126 | 0.825 | 0.855 | 0.9 | 0.875 | 0.865 | 0.697 | 0.727 | 0.653 | 0.602 | 0.657 | 0.416 | 0.443 | 0.449 | 0.425 | 0.436 | 0.884 | 1.07 | 0.97 | 0.973 | 1.11 |
| NCI-H2170 | 0.624 | 0.701 | 0.775 | 0.527 | 0.48 | 0.701 | 0.75 | 0.791 | 0.606 | 0.726 | 0.296 | 0.287 | 0.301 | 0.271 | 0.276 | 0.714 | 0.887 | 1.01 | 0.828 | 0.685 |
| NCI-H2347 | 0.409 | 0.248 | – | 0.555 | 0.232 | 0.403 | 0.531 | 0.447 | 0.354 | 0.467 | 0.583 | 0.685 | 0.434 | 0.665 | 0.578 | 0.853 | 0.733 | 0.675 | 0.647 | 0.73 |
